Data: US20260242391A1 (priority 2023, published 2026)
Where two headings read alike, the source gives them in different places. Blank lines part the entries; values can stand above or below the compound they belong to.

Assays:
[1] = test system: MDS-L cells; details: for Induction of differentiation of MDS-L cells (GlyA positivity), in words: anti-GlyA immunopositivity; for EC50: read-out: MDS-L GlyA induction EC50
Description: MDS-L differentiation assay.
(§1) MDS-L were cultured in RPMI (17-105-CV, Corning) without phenol red and supplemented with 2 mM glutamine and 10% FBS. Cells first expanded in IL-3 until 70% confluence then pre-conditioned for 14 days with IL-3 (200-03, PeproTech), GCSF (300-23, PeproTech), and EPO (287-TC, R&D Systems) to promote erythroid and myeloid differentiation. A density of 10,000 cells per well were used in phenotypic assays. MDSL cells were spun and treatment media was replaced with media containing APC Anti-CD235a (GlyA) (551336, BD Biosciences) (1.25 μL per 50 L test) and incubated for 1 hour at 4° C. Cells were washed then counter stained with SYTOX-Green 1 M per 100 L prior to flow cytometry analysis. Dose response and pharmacological assays were analyzed using a ZE5 Cell Analyzer (BioRad) equipped with Everest software. Single, live, cells were analyzed for GlyA expression using FlowJo v10.7.2 software.

[2] = test system: MDS-L cells
[3] = test system: MDS-L cells; assay: Loss of CD71 in MDS-L cells; format: cell-based
[4] = test system: MDS-L cells; assay: cells; details: read-out: MDS-L GlyA induction EC50
Description: MDS-L differentiation assay.
as §1

[5] = test system: MDS-L cells; assay: CFU assays with MDS-L cells; format: cell-based
[6] = test system: HL-60; assay: HL-60 differentiation potency; format: cell-based; details: Homo sapiens
[7] = test system: HL-60
[8] = test system: HL-60; remark: listed apart in the source
[9] = test system: HL-60; assay: HL-60 differentiation potency; format: cell-based; details: Homo sapiens; remark: listed apart in the source
[10] = in vitro; details: human
[11] = test system: MDS-L cells; assay: Labile heme levels of MDS-L cells; format: cell-based; details: over relevant time periods (FIG. 4B)
[12] = MDS-L cells, anti-CD235a (GlyA) flow cytometry

Compound: C[C@@H]1CC[C@H]2[C@@H](C)C(=O)O[C@@H]3O[C@@]4(C)CC[C@@H]1[C@]32O4 [2-deoxy-artemisinin]
Induction of differentiation of MDS-L cells (GlyA positivity), in words ([1]; MDS-L cells): inactive

Compound: CC1=C(/C=C/C(C)=C/C=C/C(C)=C/C(=O)O)C(C)(C)CCC1 [ATRA, retinoic acid]
Cytotoxicity as readout by live dead cell gating ([1]; MDS-L cells): minimal cytotoxicity

Compound: Cc1c(-c2ccc(-c3ccccc3F)cc2)nc2ccc(F)cc2c1C(=O)O [Brequinar]
Induction of differentiation of MDS-L cells (GlyA positivity), in words ([1]; MDS-L cells): efficacious at inducing differentiation

Compound: C[C@H]1[C@@H](OC[C@H]2CC[C@@H](C(=O)N[C@H]3CC[C@@H](C(=O)O)C3)CC2)O[C@@H]2O[C@@]3(C)CC[C@H]4[C@H](C)CC[C@@H]1[C@@]24OO3 [Compound 267, (1R,3S)-3-((1R,4R)-4-((((3R,5aS,6R,8aS, 9R,10S,12R, 12aR)-3,6,9-trimethyldeca-hydro-12H-3,12-epoxy[1,2]dioxepino[4,3-i]isochromen-10-yl)oxy)methyl)cyclohexane-1-carboxamido) cyclopentane-1-carboxylic acid]
IC50 [8]: 20000 nM | EC50 [9]: 156 nM

Compound: CC(C)[C@H](NC(=O)Cc1ccc(O[C@H]2O[C@@H]3O[C@@]4(C)CC[C@H]5[C@H](C)CC[C@@H]([C@H]2C)[C@@]35OO4)cc1)C(=O)O [Compound 302, (2-(4-(((3R,5aS,6R,8aS, 9R,10S,12R, 12aR)-3,6,9-trimethyldeca-hydro-12H-3,12-epoxy[1,2]dioxepino[4,3-i]isochromen-10-yl)oxy)phenyl)acetyl)-L-valine]
IC50 [8]: 20000 nM | EC50 [9]: 16.2 nM

Compound: C[C@H]1[C@@H](OCc2c(F)cc(C(=O)N[C@H]3CC[C@@H](C(=O)O)C3)cc2F)O[C@@H]2O[C@@]3(C)CC[C@H]4[C@H](C)CC[C@@H]1[C@@]24OO3 [Compound 309, (1R,3S)-3-(3,5-difluoro-4-((((3R,5aS,6R,8aS, 9R,10S,12R, 12aR)-3,6,9-trimethyldeca-hydro-12H-3,12-epoxy[1,2]dioxepino[4,3-i]isochromen-10-yl)oxy)methyl)benzamido) cyclopentane-1-carboxylic acid]
EC50 [9]: 31.3 nM | IC50 [10]: 1740 nM

Compound: C[C@H]1[C@@H](O)O[C@@H]2O[C@@]3(C)CC[C@H]4[C@H](C)CC[C@@H]1[C@@]24OO3 [Dihydroartemisin, dihydro- artemisinin]
Maximal MDS-L GlyA fold induction ([1]; human): 7.09 fold | EC50 [4]: 610 nM

Compound: C[C@H]1[C@H](N2CCS(=O)(=O)CC2)O[C@@H]2O[C@@]3(C)CC[C@H]4[C@H](C)CC[C@@H]1[C@@]24OO3 [artemisone]
Maximal MDS-L GlyA fold induction ([1]; human): 6.84 fold | Induction in apoptosis [2]: no significant induction | Levels of labile heme in MDS-L cells [11]: efficiently reduced | Loss of CD71 [3]: efficaciously promoted the loss of CD71 | EC50 [4]: 150 nM | Terminal differentiation of MDS-L cells to CFU-Es while decreasing BFU-E, CFU-GM and CFU-GEMM type colonies [5]: efficaciously induced terminal differentiation

Compound: CCCCCCCCCCCCCC(=O)O[C@@H]1[C@@H](C)[C@@]2(O)[C@@H](C=C(CO)C[C@]3(O)C(=O)C(C)=C[C@@H]23)[C@@H]2C(C)(C)[C@]12OC(C)=O [phorbol 12-myristate 13-acetate (PMA), phorbol 12-myristate 13-acetate]
Induction of differentiation of MDS-L cells (GlyA positivity), in words ([1]; MDS-L cells): efficacious at inducing differentiation

Compound: Artefenomel [Artefenomel (OZ-439)]
Maximal MDS-L GlyA fold induction [1, 12]: 3.71 fold | EC50 [1, 12]: 5650 nM

Compound: Arterolane [Arterolane (OZ-277)]
Maximal MDS-L GlyA fold induction [1, 12]: 7.02 fold | EC50 [1, 12]: 1740 nM

Now from value to compound, other results behind:

Maximal MDS-L GlyA fold induction ([1]; human): 3.82 fold | EC50 [4]: 580 nM
Compound: CCO[C@H]1O[C@@H]2O[C@@]3(C)CC[C@H]4[C@H](C)CC[C@@H]([C@H]1C)[C@@]24OO3 [Arteether, arteether]
Induction in apoptosis [2]: no significant induction | Loss of CD71 [3]: efficaciously promoted the loss of CD71 | Terminal differentiation of MDS-L cells to CFU-Es while decreasing BFU-E, CFU-GM and CFU-GEMM type colonies [5]: efficaciously induced terminal differentiation

Maximal MDS-L GlyA fold induction ([1]; human): 7.26 fold | EC50 [4]: 30 nM
Compound: C[C@H]1[C@@H](OCc2ccc(C(=O)O)cc2)O[C@@H]2O[C@@]3(C)CC[C@H]4[C@H](C)CC[C@@H]1[C@@]24OO3 [Artelinic acid (artelinate), artelinate]

Maximal MDS-L GlyA fold induction ([1]; human): 7.51 fold | EC50 [4]: 850 nM
Compound: C[C@H]1[C@H](OC(=O)CCC(=O)O)O[C@@H]2O[C@@]3(C)CC[C@H]4[C@H](C)CC[C@@H]1[C@@]24OO3 [Artesunate, artesunate]

EC50 [6]: 90.9 nM | IC50 [7]: 20000 nM
Compound: C[C@H]1[C@H](Oc2cc(F)c(CC(=O)O)c(F)c2)O[C@@H]2O[C@@]3(C)CC[C@H]4[C@H](C)CC[C@@H]1[C@@]24OO3 [Compound 14, 2-(2,6-difluoro-4-(((3R,5aS,6R, 8aS,9R,10R,12R, 12aR)-3,6,9-trimethyldeca-hydro-12H-3,12-epoxy[1,2]dioxepino[4,3-i]isochromen-10-yl)oxy)phenyl) acetic acid]

EC50 [6]: 131 nM | IC50 [7]: 20000 nM
Compound: C[C@H]1[C@@H](Oc2cc(F)c(CC(=O)O)c(F)c2)O[C@@H]2O[C@@]3(C)CC[C@H]4[C@H](C)CC[C@@H]1[C@@]24OO3 [Compound 22, 2-(2,6-difluoro-4-(((3R,5aS,6R, 8aS,9R,10S,12R, 12aR)-3,6,9-trimethyldeca-hydro-12H-3,12-epoxy[1,2]dioxepino[4,3-i]isochromen-10-yl)oxy)phenyl) acetic acid]

EC50 [6]: 1220 nM | IC50 [7]: 20000 nM
Compound: C[C@H]1[C@@H](Oc2ccc(C(=O)C(=O)O)cc2)O[C@@H]2O[C@@]3(C)CC[C@H]4[C@H](C)CC[C@@H]1[C@@]24OO3 [Compound 128, 2-oxo-2-(4-(((3R,5aS,6R,8aS, 9R,10S,12R, 12aR)-3,6,9-trimethyldeca-hydro-12H-3,12-epoxy[1,2]dioxepino[4,3-i]isochromen-10-yl)oxy)phenyl) acetic acid]

IC50 [8]: 20000 nM | EC50 [9]: 203 nM
Compound: C[C@H]1[C@H](OC2CCc3cc(C(=O)O)ccc32)O[C@@H]2O[C@@]3(C)CC[C@H]4[C@H](C)CC[C@@H]1[C@@]24OO3 (stereo partly drawn) [Compound 225, 1-(((3R,5aS,6R,8aS, 9R,10R,12R, 12aR)-3,6,9-trimethyldeca-hydro-12H-3,12-epoxy[1,2]dioxepino[4,3-i]isochromen-10-yl)oxy)-2,3-dihydro-1H-indene-5-carboxylic acid]
